Read-outs that look alike come from different tables or passages of the source.
Assays:
HaCaT cells = assay: MTT assay, normal HaCaT cells; format: cell-based, human; settings: 72 h; for IC50: normal cells
Description: (§1) Human cancer cell lines, human lung adenocarcinoma A549 cells, human hepatocarcinoma SMMC7721 cells, human colorectal carcinoma SW620 cells and HaCaT cells were purchased from American Type Culture Collection (ATCC, Manassas, VA, USA). All cell lines were maintained in Dulbecco’s Modified Eagle Medium (DMEM) media supplemented with fetal bovine serum (10%), penicillin (100 units/mL), and streptomycin (50 units/mL) at 37 °C in a CO2 incubator (95% relative humidity, 5% CO2).
(§2) Cell viability was confirmed by measuring the ability of cells to transform 3-(4,5-dimethylthia-zol-2-yl)-2,5-diphenyltetrazolium bromide (MTT) to a purple formazan dye. Cells were seeded in 96-well tissue culture plates (3 × 10^3 cells per well) for 24 h. The cells were then incubated with the tested compounds at different concentrations for 72 h. After incubation, 20 µL per well of MTT solution (5 mg/mL in phosphate buffered saline, PBS) was added, followed by incubation for a further 5 h. The medium was aspirated and replaced with 150 µL/well of DMSO to dissolve the formazan salt formed. The colour intensity, which reflects the cell growth condition, was measured at 570 nm using a microplate spectrophotometer (SpectroAmaxTM250, BioTek Instruments, Inc., Winooski, VT, USA).

[1] = tested on: human colorectal carcinoma SW620 cells; assay: MTT assay, growth inhibition of SW620 cells; format: cell-based
Description: as §1, §2

[2] = tested on: human lung adenocarcinoma A549 cells; assay: MTT assay, growth inhibition of A549 cells; format: cell-based
Description: as §1, §2

[3] = tested on: human hepatocarcinoma SMMC7721 cells; assay: MTT assay, growth inhibition of SMMC7721 cells; format: cell-based
Description: as §1, §2

[4] = tested on: bcl-2 G-quadruplex DNA (bcl-2 G4 DNA) (DNA, G4) CGGGCGCGGGAGGAAGGGGGCGGGAGC; assay: ethidium bromide displacement fluorescence; settings: K+ (KCl, concentration not given); Tris-HCl KCl pH 7.2; EB 16 μM, DNA 2 μM; I/I0 0.83 at 20.89 μM compound
bcl-2 G-quadruplex DNA = assay: Electronic absorption titration with bcl-2 G-quadruplex DNA; format: binding
Description: (§3) All reagents were purchased from commercial suppliers and used without further purification. Solvents were dried and purified by conventional methods prior to use. Distilled water was used in all experiments. Bcl-2 G-quadruplex DNA (5′-[…]-3′) and 5′-FAM-bcl-2-TAMRA-3′ were purchased from Sangon Biotech Co., Ltd. (Shanghai, China) Bcl-2 G-quadruplex DNA formed a G-quadruplex conformation as literature by renaturation for 24 h at 4 °C, after denaturation for 5 min at 90 °C [29]. All aqueous solutions were prepared with doubly distilled water. The Tris-HCl buffer consisting of Tris and KCl, and the pH value was adjusted to 7.2 by HCl solution, which was applied to UV titration, Fluorescence emission titrations.
Electronic absorption spectra were recorded on a Shimadzu UV-2550 spectrophotometer using 1 cm path length quartz cuvettes (3 mL). The absorption titration of the target complex in Tris-HCl buffer was performed by using a fixed complex concentration to which increments of the DNA stock solution were added. The concentration of the complex solution was 20 μM and bcl-2 G4 DNA was added by degrees. Complex-DNA solutions were allowed to incubate for 3 min before the absorption spectra were recorded.

[5] = tested on: 5'-FAM-bcl-2-TAMRA-3' (DNA, G4) CGGGCGCGGGAGGAAGGGGGCGGGAGC; assay: FRET melting; settings: Tris-HCl buffer; 6.0 μM compound (2.4 °C at 3.0 μM); 1 μM DNA (0.2 μM in Figure 4 legend)
bcl-2 G4 DNA [6] = assay: Fluorescence quenching of EB + bcl-2 G4 DNA system; format: binding; settings: [1] = 20.89 μM, [EB] = 16 μM, [DNA] = 2 μM, excitation 350 nm, Tris-HCl KCl buffer pH 7.2
Description: as §3
Fluorescence spectroscopy measurements were performed on a RF-5301 fluorescence spectrophotometer using a 1 cm path length quartz cell. Fluorescence quenching of the EB + bcl-2 G4 DNA system can be used for a compound having an affinity to DNA in spite of its binding mode, and only measures the ability of the compound to affect the EB fluorescence intensities in the EB + bcl-2 G4 DNA system. The titration processes were repeated until there was no apparent change in the spectra for at least three titrations, indicating the achievement of the binding saturation.

A549 cells = assay: Flow cytometric analysis of cell cycle arrest (PI staining); format: cell-based, human; settings: 20 μM, 24 h, versus control (55.75%)
Description: Cells were seeded in six-well tissue culture plates (1 × 10^5 cells per well), and the cell cycle arrest was analyzed by flow cytometry as previously described. […] The fixed cells were washed with PBS and stained with propidium iodide (PI) for 15 min in the dark, then the cell cycle arrest was analyzed with an Epics XL-MCL flow cytometer (Beckman Coulter, Miami, FL, USA).

[7] = tested on: bcl-2 G-quadruplex DNA (bcl-2 G4 DNA) (DNA, G4) CGGGCGCGGGAGGAAGGGGGCGGGAGC; assay: UV-vis absorption titration; settings: K+ (KCl, concentration not given); Tris-HCl pH 7.2; fixed 20 μM compound (60 μM in Figure 3 legend); intrinsic binding constant
bcl-2 G4 DNA [8] = assay: FRET melting assay; format: binding
Description: The fluorescent labeled oligonucleotide, bcl-2 G-quadruplex DNA (5′-FAM-[…]-TAMRA-3′, FAM: carboxyfluorescein, TAMRA: 6-carboxy tetramethylrhodamine) used as the FRET probe was diluted in TrisHCl buffer and then annealed by being heated to 90 °C for 5 min, followed by slowly cooling to room temperature. Ds26 duplex DNA ([…]) was competitive binders to evaluate the selective binding ability of 1 with bcl-2 G4 DNA. Fluorescence melting curves were determined with a Bio-RadiQ5 realtime PCR detection system (Bio-Rad, Berkeley, CA, USA), by using a total reaction volume of […], with labeled oligonucleotide (1 μM) and different concentrations of complex in Tris-HCl buffer. A constant temperature was maintained for 30 s prior to each reading to ensure a stable value. Final analysis of the data was carried out by using Origin7.5 (Origin Lab, Northampton, MA, USA).

SMILES	IC50 ([1]; Homo sapiens, SW-620, 72 h)	IC50 ([2]; Homo sapiens, A549, 72 h)	IC50 ([3]; Homo sapiens, SMMC-7721, 72 h)	IC50 (HaCaT cells; Homo sapiens, HaCaT)	other results
FC(F)(F)c1cccc(-c2nc3c4cccnc4c4ncccc4c3[nH]2)c1 [Compound 2]	27.2 ± 0.53 µM	13.8 ± 0.53 µM	12.9 ± 0.51 µM	17.5 ± 0.58 µM	
O=[N+]([O-])c1cccc(-c2nc3c4cccnc4c4ncccc4c3[nH]2)c1 [Compound 1]	26.5 ± 0.59 µM	15 ± 1.01 µM	17.5 ± 1.84 µM	27.3 ± 1.49 µM	binding [4]: weak; toxicity in normal cells (HaCaT cells): low toxicity in normal cells; hyperchromism at the IL absorption band (bcl-2 G-quadruplex DNA; Tris-HCl buffer pH 7.2, about 273 nm, on addition of bcl-2 G-quadruplex DNA): about 14.1%; bathochromic shift Δλ at the IL absorption band (bcl-2 G-quadruplex DNA; Tris-HCl buffer pH 7.2, on addition of bcl-2 G-quadruplex DNA): 2.1 nm; ΔTm [5]: ~ 11 °C; relative fluorescence intensity (I/I0) of EB-DNA (bcl-2 G4 DNA [6]): about 0.83; ratio of G1-phase higher than that of the control (A549 cells): about 12%; Kb [7]: ~ 8.7 × 10^7 M^-1; ΔTm of bcl-2 G4 DNA (bcl-2 G4 DNA [8]; 3.0 μM compound): about 2.4 °C; ΔTm of bcl-2 G4 DNA (bcl-2 G4 DNA [8]; 6.0 μM compound): about 11 °C
N.N.[Cl][Pt][Cl] [cis-platin, reference compound]					IC50 (HaCaT cells): 18.5 ± 1.64 µM; IC50 ([1]; 72 h): 6.29 ± 0.17 µM; IC50 ([2]; 72 h): 32 ± 4.66 µM; IC50 ([3]; 72 h, read-out: IC50 (μM) SMMC-7721): 11.7 ± 1.45 µM

More lines, main results first:

IC50 ([1]; Homo sapiens, SW-620, 72 h)	IC50 ([2]; Homo sapiens, A549, 72 h)	IC50 ([3]; Homo sapiens, SMMC-7721, 72 h)	SMILES	IC50 (HaCaT cells; Homo sapiens, HaCaT)	other results
16 ± 0.29 µM	14.3 ± 0.21 µM	12.6 ± 0.35 µM	Clc1cccc(-c2nc3c4cccnc4c4ncccc4c3[nH]2)c1 [Compound 3]	13.4 ± 0.56 µM	
16.5 ± 0.28 µM	3 ± 0.14 µM	24.2 ± 2.28 µM	Oc1cccc(-c2nc3c4cccnc4c4ncccc4c3[nH]2)c1 [Compound 4]	13.9 ± 0.64 µM	
